Source: ChEMBL document CHEMBL4622909, “PARP inhibitor cyanine dye conjugate with enhanced cytotoxic and antiproliferative activity in patient derived glioblastoma cell lines” (Bioorg Med Chem Lett, 2020)
The source made the active and inactive calls. No cut-off for these calls is given here.

Tests used:
GBM [1] = assay: cells; assay type: functional, cell-based; conditions: Homo sapiens, 48 h
Description: Synergistic antiproliferative activity against human patient derived GBM cells assessed as reduction in cell proliferation measured after 48 hrs in presence of temozolomide by Edu incorporation assay

GBM [2] = assay: Cytotoxicity against human patient derived GBM cells assessed as reduction in cell viability measured after 48 hrs by Hoechst staining based assay; assay type: functional
GBM [3] = assay: Synergistic cytotoxicity against human patient derived GBM cells assessed as reduction in cell viability measured after 48 hrs in presence of temozolomide by Hoechst staining based assay; assay type: functional
GBM [4] = assay: Potency index, ratio of IR-786 IC50 to test compound IC50 for synergistic cytotoxicity against human patient derived GBM cells assessed as reduction in cell viability measured after 48 hrs in presence of temozolomide by Hoechst staining based assay; assay type: functional
GBM [5] = assay: Potency index, ratio of IR-786 IC50 to test compound IC50 for human patient derived GBM cells assessed as reduction in cell viability measured after 48 hrs by Hoechst staining based assay; assay type: functional
GBM [6] = assay: Antiproliferative activity against human patient derived GBM cells assessed as reduction in cell proliferation measured after 48 hrs by Edu incorporation assay relative to compound alone; assay type: functional
GBM [7] = assay: Potency index, ratio of rucaparib IC50 to test compound IC50 for human patient derived GBM cells assessed as reduction in cell viability measured after 48 hrs by Hoechst staining based assay; assay type: functional
GBM [8] = assay: Ratio of EC50 for cytotoxicity against human patient derived GBM assessed as reduction in cell viability measured after 48 hrs by Hoechst staining based assay to EC50 for synergistic cytotoxicity against human patient derived GBM assessed as reduction in cell viability measured after 48 hrs in presence of temozolomide by Hoechst staining based assay; assay type: functional
GBM [9] = assay: Antiproliferative activity against human patient derived GBM cells assessed as reduction in cell proliferation measured after 48 hrs by Edu incorporation assay; assay type: functional, cell-based
GBM [10] = assay: Antiproliferative activity against human patient derived GBM cells assessed as reduction in cell proliferation up to 100 uM measured after 48 hrs by Edu incorporation assay; assay type: functional, cell-based

IC50 (GBM [1]) | Compound | EC50 (GBM [2]) | EC50 (GBM [3]) | Ratio IC50 (GBM [4]) | Ratio IC50 (GBM [5]) | Ratio IC50 (GBM [6]) | Ratio IC50 (GBM [7]) | Ratio EC50 (GBM [8]) | IC50 (GBM [9]) | Activity (GBM [10])
20 nM | CN1/C(=C/C=C2\CCCC(/C=C/C3=[N+](C)c4ccccc4C3(C)C)=C2N2CCN(c3ccc(-c4[nH]c5cc(F)cc6c5c4CCNC6=O)cc3)CC2)C(C)(C)c2ccccc21.[I-] | 128 nM | 56 nM | 7 | 13.5 | 2 | 780 | 2 | 21 nM | 
2260 nM | CNCc1ccc(-c2[nH]c3cc(F)cc4c3c2CCNC4=O)cc1 [RUCAPARIB] | > 100000 nM | > 100000 nM |  |  | 24 |  |  | 53400 nM | 
 | Cn1nnc2c(C(N)=O)ncn2c1=O |  |  |  |  |  |  |  |  | inactive
